Species on record: Rattus norvegicus
Test: Open TG-GATES - Regimen: Daily Repeat
Format: toxicity, organism-based, Sprague-Dawley
Parameters: regimen Daily Repeat, gender Male, age 6 weeks
Settings: in vivo, po, route gavage; for Bas / Eos / Fbg / Ht / Lym / MCHC / MCV / Mono / PT / Plat / RBC / Ret / WBC / Neu: tissue Blood; for KIDNEY_L / KIDNEY_R / KIDNEY_TOTAL: tissue Kidney; for ALT / AST / CRE / Ca / DBIL / GLC / IP / K / LDH / Na / PL / RALB / TBIL / TC / TG / TP / gamma-GTP / BUN / Cl: tissue Plasma
[1] = 240 mg/kg, 72 h, dose level Middle, time 3 day
[2] = 240 mg/kg, […], dose level Middle, time 7 day
[3] = 240 mg/kg, […], dose level Middle, time 14 day
[4] = 240 mg/kg, […], dose level Middle, time 28 day
[5] = 800 mg/kg, 72 h, dose level High, time 3 day
[6] = 800 mg/kg, […], dose level High, time 7 day
[7] = 800 mg/kg, […], dose level High, time 14 day
[8] = 800 mg/kg, […], dose level High, time 28 day

Compound: COc1ccc([C@@H]2Sc3ccccc3N(CCN(C)C)C(=O)[C@@H]2OC(C)=O)cc1 [DILTIAZEM]
- Bas [1]: 0.2%
- Eos [1]: 1%
- Fbg [1]: 294.4 mg/dL
- Ht [1]: 40.4%
- Lym [1]: 71.6%
- MCHC [1]: 32.8%
- MCV [1]: 65.7 fL
- Mono [1]: 3.4%
- PT [1]: 13.8 s
- Plat [1]: 118.5 x10_4/uL
- RBC [1]: 614.8 x10_4/ul
- Ret [1]: 8.8%
- WBC [1]: 106.5 x10_2/uL
- KIDNEY_L [1]: 1 g
- KIDNEY_R [1]: 1 g
- KIDNEY_TOTAL [1]: 2 g
- ALT [1]: 50 IU/L
- AST [1]: 67.4 IU/L
- CRE [1]: 0.2 mg/dL
- Ca [1]: 11.3 mg/dL
- DBIL [1]: 0.02 mg/dL
- GLC [1]: 183 mg/dL
- IP [1]: 8.1 mg/dL
- K [1]: 3.9 meq/L
- LDH [1]: 81.8 IU/L
- Na [1]: 144 meq/L
- PL [1]: 153.8 mg/dL
- RALB [1]: 2.7 g/dL
- TBIL [1]: 0.024 mg/dL
- TC [1]: 87.6 mg/dL
- TG [1]: 99.4 mg/dL
- TP [1]: 5.6 g/dL
- gamma-GTP [1]: 1.2 IU/L
- TERMINAL_BW [2]: 251.4 g
- TERMINAL_BW [3]: 321.6 g
- TERMINAL_BW [4]: 419 g
- Bas [2]: 0%
- Eos [2]: 0.8%
- Fbg [2]: 301.4 mg/dL
- Ht [2]: 41%
- Lym [2]: 75.2%
- MCHC [2]: 32.9%
- MCV [2]: 63.6 fL
- Mono [2]: 2.6%
- Neu [2]: 20.6%
- PT [2]: 13.9 s
- Plat [2]: 129.2 x10_4/uL
- RBC [2]: 644.6 x10_4/ul
- Ret [2]: 7%
- WBC [2]: 72.6 x10_2/uL
- Bas [3]: 0.6%
- Eos [3]: 0.8%
- Fbg [3]: 336.4 mg/dL
- Ht [3]: 42.8%
- Lym [3]: 73%
- MCHC [3]: 33.1%
- MCV [3]: 61.7 fL
- Mono [3]: 2.6%
- Neu [3]: 22.2%
- PT [3]: 14.1 s
- Plat [3]: 131.9 x10_4/uL
- RBC [3]: 693.6 x10_4/ul
- Ret [3]: 5.6%
- WBC [3]: 112.7 x10_2/uL
- Bas [4]: 0.2%
- Eos [4]: 1.4%
- Fbg [4]: 305.4 mg/dL
- Ht [4]: 45.7%
- Lym [4]: 69%
- MCHC [4]: 34.4%
- MCV [4]: 58.1 fL
- Mono [4]: 2.4%
- Neu [4]: 26.6%
- PT [4]: 13.9 s
- Plat [4]: 109.1 x10_4/uL
- RBC [4]: 786.8 x10_4/ul
- Ret [4]: 2.5%
- WBC [4]: 119 x10_2/uL
- KIDNEY_L [2]: 1.1 g
- KIDNEY_R [2]: 1 g
- KIDNEY_TOTAL [2]: 2.1 g
- KIDNEY_L [3]: 1.3 g
- KIDNEY_R [3]: 1.4 g
- KIDNEY_TOTAL [3]: 2.7 g
- KIDNEY_L [4]: 1.5 g
- KIDNEY_R [4]: 1.5 g
- KIDNEY_TOTAL [4]: 3 g
- ALT [2]: 38.6 IU/L
- AST [2]: 61.6 IU/L
- BUN [2]: 15 mg/dL
- CRE [2]: 0.2 mg/dL
- Ca [2]: 11.4 mg/dL
- Cl [2]: 105.8 meq/L
- DBIL [2]: 0.01 mg/dL
- GLC [2]: 190.6 mg/dL
- IP [2]: 8.2 mg/dL
- K [2]: 3.9 meq/L
- LDH [2]: 97.2 IU/L
- Na [2]: 144.2 meq/L
- PL [2]: 155 mg/dL
- RALB [2]: 2.8 g/dL
- TBIL [2]: 0.016 mg/dL
- TC [2]: 81.2 mg/dL
- TG [2]: 117 mg/dL
- TP [2]: 5.9 g/dL
- gamma-GTP [2]: 1.2 IU/L
- ALT [3]: 44.4 IU/L
- AST [3]: 67.8 IU/L
- BUN [3]: 14.8 mg/dL
- CRE [3]: 0.2 mg/dL
- Ca [3]: 11 mg/dL
- DBIL [3]: 0.012 mg/dL
- GLC [3]: 194.4 mg/dL
- IP [3]: 7.6 mg/dL
- K [3]: 4 meq/L
- LDH [3]: 80 IU/L
- Na [3]: 144.4 meq/L
- PL [3]: 165.4 mg/dL
- RALB [3]: 2.8 g/dL
- TBIL [3]: 0.014 mg/dL
- TC [3]: 84.2 mg/dL
- TG [3]: 125.4 mg/dL
- TP [3]: 6.1 g/dL
- gamma-GTP [3]: 1.4 IU/L
- ALT [4]: 43.8 IU/L
- AST [4]: 64.2 IU/L
- BUN [4]: 17.2 mg/dL
- CRE [4]: 0.2 mg/dL
- Ca [4]: 11.3 mg/dL
- Cl [4]: 108.6 meq/L
- DBIL [4]: 0.012 mg/dL
- GLC [4]: 188.6 mg/dL
- IP [4]: 7 mg/dL
- K [4]: 4 meq/L
- LDH [4]: 82.6 IU/L
- Na [4]: 146.6 meq/L
- PL [4]: 168.8 mg/dL
- RALB [4]: 3 g/dL
- TBIL [4]: 0.014 mg/dL
- TC [4]: 85.2 mg/dL
- TG [4]: 163.4 mg/dL
- TP [4]: 6.6 g/dL
- gamma-GTP [4]: 1 IU/L
- TERMINAL_BW [5]: 201.2 g
- Bas [5]: 0%
- Eos [5]: 1%
- Fbg [5]: 277 mg/dL
- Ht [5]: 41.8%
- Lym [5]: 71.4%
- MCHC [5]: 33.3%
- MCV [5]: 64.5 fL
- Mono [5]: 2.6%
- Neu [5]: 24.2%
- PT [5]: 14 s
- Plat [5]: 141.9 x10_4/uL
- RBC [5]: 651.2 x10_4/ul
- Ret [5]: 7.5%
- WBC [5]: 87.5 x10_2/uL
- KIDNEY_L [5]: 0.9 g
- KIDNEY_R [5]: 0.9 g
- KIDNEY_TOTAL [5]: 1.8 g
- ALT [5]: 36.4 IU/L
- AST [5]: 61.8 IU/L
- CRE [5]: 0.2 mg/dL
- Ca [5]: 11 mg/dL
- Cl [5]: 106.6 meq/L
- DBIL [5]: 0.014 mg/dL
- GLC [5]: 161.8 mg/dL
- IP [5]: 8 mg/dL
- K [5]: 4 meq/L
- LDH [5]: 76.6 IU/L
- Na [5]: 143.6 meq/L
- PL [5]: 151.4 mg/dL
- RALB [5]: 2.6 g/dL
- TBIL [5]: 0.012 mg/dL
- TC [5]: 92.2 mg/dL
- TG [5]: 96.6 mg/dL
- TP [5]: 5.4 g/dL
- gamma-GTP [5]: 1 IU/L
- TERMINAL_BW [6]: 242.9 g
- TERMINAL_BW [7]: 272.9 g
- TERMINAL_BW [8]: 390.8 g
- Bas [6]: 0%
- Eos [6]: 0.6%
- Fbg [6]: 312.6 mg/dL
- Ht [6]: 40.7%
- Lym [6]: 70.6%
- MCHC [6]: 33.3%
- MCV [6]: 63.4 fL
- Mono [6]: 2.8%
- Neu [6]: 25.4%
- PT [6]: 14.6 s
- Plat [6]: 130.6 x10_4/uL
- RBC [6]: 641.4 x10_4/ul
- Ret [6]: 6.3%
- WBC [6]: 99.7 x10_2/uL
- Bas [7]: 0%
- Eos [7]: 0.6%
- Fbg [7]: 373.6 mg/dL
- Ht [7]: 45.5%
- Lym [7]: 73.2%
- MCHC [7]: 33.4%
- MCV [7]: 59.8 fL
- Mono [7]: 3.4%
- Neu [7]: 21.4%
- PT [7]: 14.1 s
- Plat [7]: 133.1 x10_4/uL
- RBC [7]: 760 x10_4/ul
- Ret [7]: 4%
- WBC [7]: 108.8 x10_2/uL
- Bas [8]: 0.2%
- Eos [8]: 1%
- Fbg [8]: 281.5 mg/dL
- Ht [8]: 45.1%
- Lym [8]: 64.8%
- MCHC [8]: 34.1%
- MCV [8]: 58.1 fL
- Mono [8]: 3.2%
- Neu [8]: 30.2%
- PT [8]: 14.5 s
- Plat [8]: 116.2 x10_4/uL
- RBC [8]: 777.2 x10_4/ul
- Ret [8]: 3.3%
- WBC [8]: 123.1 x10_2/uL
- KIDNEY_L [6]: 1 g
- KIDNEY_R [6]: 1 g
- KIDNEY_TOTAL [6]: 2 g
- KIDNEY_L [7]: 1.2 g
- KIDNEY_R [7]: 1.2 g
- KIDNEY_TOTAL [7]: 2.4 g
- KIDNEY_L [8]: 1.5 g
- KIDNEY_R [8]: 1.5 g
- KIDNEY_TOTAL [8]: 2.9 g
- ALT [6]: 50 IU/L
- AST [6]: 70.6 IU/L
- CRE [6]: 0.2 mg/dL
- Ca [6]: 11.3 mg/dL
- Cl [6]: 105.6 meq/L
- DBIL [6]: 0.006 mg/dL
- GLC [6]: 187 mg/dL
- IP [6]: 8.3 mg/dL
- K [6]: 4 meq/L
- LDH [6]: 101.6 IU/L
- Na [6]: 144.8 meq/L
- PL [6]: 145 mg/dL
- RALB [6]: 2.7 g/dL
- TBIL [6]: 0.004 mg/dL
- TC [6]: 87.2 mg/dL
- TG [6]: 59.6 mg/dL
- TP [6]: 5.7 g/dL
- gamma-GTP [6]: 1.2 IU/L
- ALT [7]: 61.6 IU/L
- AST [7]: 115.4 IU/L
- BUN [7]: 16 mg/dL
- CRE [7]: 0.2 mg/dL
- Ca [7]: 10.7 mg/dL
- DBIL [7]: 0.008 mg/dL
- GLC [7]: 166.2 mg/dL
- IP [7]: 7.2 mg/dL
- K [7]: 4 meq/L
- LDH [7]: 96.2 IU/L
- Na [7]: 146.4 meq/L
- PL [7]: 152.8 mg/dL
- RALB [7]: 2.8 g/dL
- TBIL [7]: 0.004 mg/dL
- TC [7]: 99.2 mg/dL
- TG [7]: 66.4 mg/dL
- TP [7]: 6.1 g/dL
- gamma-GTP [7]: 1 IU/L
- ALT [8]: 52.5 IU/L
- AST [8]: 64 IU/L
- BUN [8]: 17.2 mg/dL
- CRE [8]: 0.2 mg/dL
- Ca [8]: 11.4 mg/dL
- Cl [8]: 105.8 meq/L
- DBIL [8]: 0.01 mg/dL
- GLC [8]: 174.8 mg/dL
- IP [8]: 7.2 mg/dL
- K [8]: 3.9 meq/L
- LDH [8]: 74.8 IU/L
- Na [8]: 145.8 meq/L
- PL [8]: 154 mg/dL
- RALB [8]: 3 g/dL
- TBIL [8]: 0.0025 mg/dL
- TC [8]: 85.8 mg/dL
- TG [8]: 72.2 mg/dL
- TP [8]: 6.4 g/dL
- gamma-GTP [8]: 2.2 IU/L
